Earlier results on two molecules are cited in article PMC13575890, “Investigating substituted phenylacetamide ligands in the D4R extended binding pocket” (Bioorganic & medicinal chemistry letters, 2026).

One series addresses T1, human D4R (Homo sapiens, UniProt P21917).
T1 construct: expressed in transfected cells
T1 sequence (P21917 1-419): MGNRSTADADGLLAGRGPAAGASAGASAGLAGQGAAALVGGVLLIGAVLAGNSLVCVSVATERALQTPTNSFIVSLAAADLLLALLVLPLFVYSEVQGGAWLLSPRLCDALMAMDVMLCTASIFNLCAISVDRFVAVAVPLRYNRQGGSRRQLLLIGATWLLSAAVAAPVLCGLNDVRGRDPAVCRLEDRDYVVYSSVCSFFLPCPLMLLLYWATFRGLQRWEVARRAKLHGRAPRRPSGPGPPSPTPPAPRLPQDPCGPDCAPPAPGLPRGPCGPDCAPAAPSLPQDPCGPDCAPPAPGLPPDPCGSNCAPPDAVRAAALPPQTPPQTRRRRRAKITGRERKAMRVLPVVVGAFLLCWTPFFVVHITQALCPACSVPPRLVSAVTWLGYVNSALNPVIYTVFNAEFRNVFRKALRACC
Set-up: method as in PMID 30883109. The following applies: membranes from HEK 293 cells stably expressing hD4R; previously reported compounds; read-out: Ki (nM) ± SEM [3H]N-methylspiperone D4R.

Another series concerns the target T2, human D3R (Homo sapiens, UniProt P35462).
T2 construct: expressed in transfected cells
More on the design: method as in PMID 30883109. To be noted: membranes from HEK 293 cells stably expressing hD3R; previously reported compounds; read-out: Ki (nM) ± SEM [3H]N-methylspiperone D3R.

T2 sequence (P35462 whole entry): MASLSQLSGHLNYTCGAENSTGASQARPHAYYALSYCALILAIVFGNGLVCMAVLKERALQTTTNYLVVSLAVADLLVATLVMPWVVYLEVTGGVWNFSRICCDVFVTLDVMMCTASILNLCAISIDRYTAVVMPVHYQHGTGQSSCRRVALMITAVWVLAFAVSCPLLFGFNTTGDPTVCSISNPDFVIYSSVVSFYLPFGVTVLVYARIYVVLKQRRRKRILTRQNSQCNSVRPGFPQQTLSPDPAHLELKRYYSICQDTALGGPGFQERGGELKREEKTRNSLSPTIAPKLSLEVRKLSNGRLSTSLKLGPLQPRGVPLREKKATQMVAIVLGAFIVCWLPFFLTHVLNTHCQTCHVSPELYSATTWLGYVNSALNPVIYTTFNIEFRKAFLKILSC

Regarding `Cc1cccc(NC(=O)CN2CCN(c3ccccn3)CC2)c1` [Compound 2], the values for the Ki on human D4R and on human D3R were 75.1 ± 0.7 nM and above 50000 nM, respectively.
As to `CCc1cccc(NC(=O)CN2CCN(c3ccccn3)CC2)c1` [Compound 3], at human D4R, the inhibition constant Ki (in general, the dissociation constant of the complex between target and ligand, obtained from inhibition or displacement) is 66.6 ± 1.8 nM.
